Measurements: ChEMBL document CHEMBL1149081, “Identification and structure-activity relationships of ortho-biphenyl carboxamides as potent Smoothened antagonists inhibiting the Hedgehog signaling pathway” (Bioorg Med Chem Lett, 2009)

What was measured:
[1] = biological target: Protein smoothened (Homo sapiens, UniProt Q99835); test: Antagonist activity at human Smo receptor expressed in CHO cells by [3H]Hh-Ag binding assay; format: cell-based
[2] = biological target: Protein smoothened (Mus musculus, UniProt P56726); test: Antagonist activity at mouse Smo receptor expressed in CHO cells by [3H]Hh-Ag binding assay; format: cell-based
[3] = Inhibition of Hedgehog signaling pathway in mouse TM3 cells bearing pTA-8xGli-Luc reporter construct assessed as transcriptional modulation of Gli after 48 hrs by luciferase assay; details: TM3, 48 h
[4] = biological target: T1, Microsomal triglyceride transfer protein large subunit (Homo sapiens, UniProt P55157); test: Inhibition of MTP in human HepG2 cells assessed as apolipoprotein B production by ELISA; format: cell-based
T1 sequence (P55157 whole entry): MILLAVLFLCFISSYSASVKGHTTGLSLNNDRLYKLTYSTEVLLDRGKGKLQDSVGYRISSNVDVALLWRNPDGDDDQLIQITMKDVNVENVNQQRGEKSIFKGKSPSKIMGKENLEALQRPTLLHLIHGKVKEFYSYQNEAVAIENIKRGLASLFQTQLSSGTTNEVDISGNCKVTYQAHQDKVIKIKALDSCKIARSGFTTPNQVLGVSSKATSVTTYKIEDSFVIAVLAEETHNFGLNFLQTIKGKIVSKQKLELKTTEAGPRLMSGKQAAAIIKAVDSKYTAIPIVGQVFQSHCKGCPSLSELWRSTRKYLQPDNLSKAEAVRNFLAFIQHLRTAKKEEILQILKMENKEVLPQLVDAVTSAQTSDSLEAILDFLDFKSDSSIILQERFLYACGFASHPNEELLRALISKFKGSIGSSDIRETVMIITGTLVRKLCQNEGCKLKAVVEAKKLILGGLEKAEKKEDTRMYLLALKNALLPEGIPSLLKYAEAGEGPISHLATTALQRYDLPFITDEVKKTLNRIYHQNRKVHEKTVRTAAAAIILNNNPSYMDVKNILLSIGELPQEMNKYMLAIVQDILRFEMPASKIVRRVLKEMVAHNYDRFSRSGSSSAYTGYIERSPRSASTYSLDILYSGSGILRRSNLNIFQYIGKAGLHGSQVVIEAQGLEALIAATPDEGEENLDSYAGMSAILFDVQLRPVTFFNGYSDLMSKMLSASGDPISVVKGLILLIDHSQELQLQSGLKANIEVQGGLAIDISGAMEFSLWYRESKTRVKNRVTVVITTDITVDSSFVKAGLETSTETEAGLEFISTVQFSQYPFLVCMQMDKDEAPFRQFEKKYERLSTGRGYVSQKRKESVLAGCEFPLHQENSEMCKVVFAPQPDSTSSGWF

Protein smoothened (Homo sapiens, UniProt Q99835), sequence (Q99835 whole entry): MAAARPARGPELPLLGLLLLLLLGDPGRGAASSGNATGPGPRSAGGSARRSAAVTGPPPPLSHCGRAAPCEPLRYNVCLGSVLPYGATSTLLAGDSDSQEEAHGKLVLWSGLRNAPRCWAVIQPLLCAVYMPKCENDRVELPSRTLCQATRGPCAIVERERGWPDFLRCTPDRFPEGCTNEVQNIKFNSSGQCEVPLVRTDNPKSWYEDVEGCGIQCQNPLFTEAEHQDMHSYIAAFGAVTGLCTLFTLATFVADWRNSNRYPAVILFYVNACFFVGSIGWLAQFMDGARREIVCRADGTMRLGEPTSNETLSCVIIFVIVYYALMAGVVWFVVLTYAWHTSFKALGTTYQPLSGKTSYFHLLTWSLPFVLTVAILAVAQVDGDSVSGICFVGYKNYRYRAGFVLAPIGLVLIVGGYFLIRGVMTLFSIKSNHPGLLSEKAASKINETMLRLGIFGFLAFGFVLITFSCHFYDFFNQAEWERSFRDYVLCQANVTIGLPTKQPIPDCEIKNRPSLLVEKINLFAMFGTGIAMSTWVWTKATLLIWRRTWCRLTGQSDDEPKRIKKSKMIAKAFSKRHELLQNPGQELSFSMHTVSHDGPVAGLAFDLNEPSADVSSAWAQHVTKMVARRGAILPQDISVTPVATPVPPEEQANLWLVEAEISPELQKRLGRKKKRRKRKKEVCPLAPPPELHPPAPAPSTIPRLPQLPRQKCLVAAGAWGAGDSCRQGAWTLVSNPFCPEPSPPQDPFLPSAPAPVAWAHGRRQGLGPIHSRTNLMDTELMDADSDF
Protein smoothened (Mus musculus, UniProt P56726), sequence (P56726 whole entry): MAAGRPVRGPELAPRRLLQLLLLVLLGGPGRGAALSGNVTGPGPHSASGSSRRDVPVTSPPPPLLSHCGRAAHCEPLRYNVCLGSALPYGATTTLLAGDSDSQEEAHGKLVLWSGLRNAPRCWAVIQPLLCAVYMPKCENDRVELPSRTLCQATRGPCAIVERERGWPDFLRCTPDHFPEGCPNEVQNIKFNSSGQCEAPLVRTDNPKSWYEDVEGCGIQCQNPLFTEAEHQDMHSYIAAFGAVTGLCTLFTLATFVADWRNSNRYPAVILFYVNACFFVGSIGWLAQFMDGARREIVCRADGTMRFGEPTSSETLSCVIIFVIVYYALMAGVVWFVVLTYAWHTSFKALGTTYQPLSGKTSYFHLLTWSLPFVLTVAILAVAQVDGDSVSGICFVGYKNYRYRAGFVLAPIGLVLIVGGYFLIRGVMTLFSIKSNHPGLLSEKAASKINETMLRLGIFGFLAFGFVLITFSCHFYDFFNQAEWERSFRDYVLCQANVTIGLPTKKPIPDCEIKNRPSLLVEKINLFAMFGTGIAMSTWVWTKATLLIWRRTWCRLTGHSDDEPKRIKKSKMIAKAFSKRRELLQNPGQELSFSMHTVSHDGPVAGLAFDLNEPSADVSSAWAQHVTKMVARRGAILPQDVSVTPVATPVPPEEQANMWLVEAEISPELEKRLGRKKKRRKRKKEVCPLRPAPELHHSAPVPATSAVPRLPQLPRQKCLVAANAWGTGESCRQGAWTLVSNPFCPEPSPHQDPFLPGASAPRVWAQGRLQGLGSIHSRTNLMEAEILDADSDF

With `O=C(Nc1ccc2c(c1)CC(NCc1ccccn1)C2)c1ccccc1-c1ccccc1` (racemic) the IC50 [1] was 1150 nM, the IC50 [2] was 1420 nM and the IC50 [3] was 1000 nM.

With `Cc1cccc(C(=O)Nc2ccc3c(c2)C[C@@H](NC(C)c2ccccc2)C3)c1-c1ccc(C(F)(F)F)cc1` (some centres not stated) the IC50 [1] was 32 nM, the IC50 [2] was 29 nM and the IC50 [3] was 88 nM.

For `Cc1cccc(C(=O)Nc2ccc3c(c2)C[C@@H](NCc2nccs2)C3)c1-c1ccc(C(F)(F)F)cc1`, the IC50 [1] was 30 nM, the IC50 [2] was 10 nM and the IC50 [3] was 25 nM.

`Cc1cccc(C(=O)Nc2ccc3c(c2)C[C@@H](NCc2cccs2)C3)c1-c1ccc(C(F)(F)F)cc1` showed an IC50 [1] of 7 nM, an IC50 [2] of 9 nM and an IC50 [3] of 10 nM.

In the case of `COC(=O)N[C@@H]1Cc2ccc(NC(=O)c3cccc(C)c3-c3ccc(C(F)(F)F)cc3)cc2C1`, the IC50 [4] is reported as 0.9 nM, the IC50 [1] is reported as 3420 nM and the IC50 [2] is reported as 2480 nM. For the same compound, the IC50 [3] was 1200 nM.

`Cc1cccc(C(=O)Nc2ccc3c(c2)C[C@@H](NCC2CCOC2)C3)c1-c1ccc(C(F)(F)F)cc1` (some centres not stated) gave an IC50 [2] of 16700 nM and an IC50 [3] of 3700 nM.

Work on `COC(=O)N[C@H]1Cc2ccc(NC(=O)c3cccc(C)c3-c3ccc(C(F)(F)F)cc3)cc2C1` yielded an IC50 [4] of 4.3 nM, an IC50 [1] of 7520 nM and an IC50 [2] of 5090 nM. For the same compound, the IC50 [3] was 2150 nM.

With `O=C(Nc1ccc2c(c1)CC(NCc1ccccn1)C2)c1ccccc1-c1ccc(Cl)cc1` (racemic) the IC50 [2] was 2710 nM and the IC50 [3] was 4950 nM.

`Cc1cccc(C(=O)Nc2ccc3c(c2)C[C@@H](NCc2ccco2)C3)c1-c1ccc(C(F)(F)F)cc1` gave an IC50 [2] of 14 nM and an IC50 [3] of 23 nM.

Work on `Cc1cccc(C(=O)Nc2ccc3c(c2)C[C@@H](NC(c2ccccc2)C(F)(F)F)C3)c1-c1ccc(C(F)(F)F)cc1` (some centres not stated) yielded an IC50 [1] of 55 nM, an IC50 [2] of 57 nM and an IC50 [3] of 33 nM.

Work on `Cc1cccc(C(=O)Nc2ccc3c(c2)C[C@H](NCc2nccs2)C3)c1-c1ccc(C(F)(F)F)cc1` yielded an IC50 [1] of 770 nM, an IC50 [2] of 1190 nM and an IC50 [3] of 4270 nM.

For `Cc1ccc(-c2ccc(C(F)(F)F)cc2)c(C(=O)Nc2ccc3c(c2)CC(NCc2ccccn2)C3)c1` (racemic), the IC50 [2] was 8680 nM and the IC50 [3] was 6800 nM.

Compound `Cc1cccc(C(=O)Nc2ccc3c(c2)C[C@@H](Nc2ccccc2)C3)c1-c1ccc(C(F)(F)F)cc1` has an IC50 [1] of 130 nM, an IC50 [2] of 82 nM and an IC50 [3] of 41 nM.

Compound `Cc1cccc(C(=O)Nc2ccc3c(c2)C[C@@H](NCc2scnc2C)C3)c1-c1ccc(C(F)(F)F)cc1` has an IC50 [1] of 170 nM, an IC50 [2] of 120 nM and an IC50 [3] of 160 nM.

Compound `Cc1cccc(C(=O)Nc2ccc3c(c2)CC(NCc2ccccc2)C3)c1-c1ccc(C(F)(F)F)cc1` (racemic) has an IC50 [3] of 93 nM.

Compound `Cc1ccc(CN[C@H]2Cc3ccc(NC(=O)c4cccc(C)c4-c4ccc(C(F)(F)F)cc4)cc3C2)o1` has an IC50 [1] of 10 nM, an IC50 [2] of 6 nM and an IC50 [3] of 8 nM.

`COc1ccc(-c2ccc(C(F)(F)F)cc2)c(C(=O)Nc2ccc3c(c2)CC(NCc2ccccn2)C3)c1` (racemic) gave an IC50 [2] greater than 5000 nM and an IC50 [3] greater than 5000 nM.

With `O=C(Nc1ccc2c(c1)CC(NCc1ccccn1)C2)c1ccccc1-c1ccc(C(F)(F)F)cc1` (racemic) the IC50 [1] was 790 nM, the IC50 [2] was 490 nM and the IC50 [3] was 200 nM.

For `Cc1cccc(C(=O)Nc2ccc3c(c2)C[C@@H](NCc2ccccc2)C3)c1-c1ccc(C(F)(F)F)cc1`, the IC50 [1] was 14 nM, the IC50 [2] was 8 nM and the IC50 [3] was 21 nM.

Work on `Cc1cccc(C(=O)Nc2ccc3c(c2)CC(NC(=O)c2ccccc2)C3)c1-c1ccc(C(F)(F)F)cc1` (racemic) yielded an IC50 [3] of 600 nM.

`Cc1cccc(C(=O)Nc2ccc3c(c2)C[C@@H](NCc2cnc4ccccc4c2)C3)c1-c1ccc(C(F)(F)F)cc1` showed an IC50 [1] of 210 nM, an IC50 [2] of 350 nM and an IC50 [3] of 1290 nM.

With `CC(=O)Nc1ccc(CN[C@H]2Cc3ccc(NC(=O)c4cccc(C)c4-c4ccc(C(F)(F)F)cc4)cc3C2)cc1` the IC50 [1] was 340 nM, the IC50 [2] was 360 nM and the IC50 [3] was 450 nM.

`Cc1cccc(C(=O)Nc2ccc3c(c2)C[C@@H](NCc2ccncc2)C3)c1-c1ccc(C(F)(F)F)cc1` showed an IC50 [1] of 240 nM, an IC50 [2] of 190 nM and an IC50 [3] of 150 nM.

`COC(=O)NC1Cc2ccc(NC(=O)c3cccc(C)c3-c3ccc(C(F)(F)F)cc3)cc2C1` (racemic) gave an IC50 [1] of 2700 nM, an IC50 [2] of 2960 nM and an IC50 [3] of 1330 nM.

`Cc1cccc(C(=O)Nc2ccc3c(c2)C[C@H](NCc2ccccn2)C3)c1-c1ccc(C(F)(F)F)cc1` gave an IC50 [4] of 3.5 nM, an IC50 [2] of 8770 nM and an IC50 [3] of 4890 nM.

`COc1ccc(CN[C@H]2Cc3ccc(NC(=O)c4cccc(C)c4-c4ccc(C(F)(F)F)cc4)cc3C2)cc1` gave an IC50 [1] of 120 nM, an IC50 [2] of 93 nM and an IC50 [3] of 360 nM.

With `CC1=C2C[C@H]3[C@@H](CC=C4C[C@@H](O)CC[C@@]43C)[C@@H]2CC[C@]12O[C@@H]1C[C@H](C)CN[C@H]1[C@H]2C` [CYCLOPAMINE] the IC50 [3] was 46 nM.

`Cc1cccc(C(=O)Nc2ccc3c(c2)CC(NCc2ccccn2)C3)c1-c1ccc(C(F)(F)F)cc1` (racemic) showed an IC50 [2] of 110 nM and an IC50 [3] of 100 nM.

`Cc1csc(CN[C@H]2Cc3ccc(NC(=O)c4cccc(C)c4-c4ccc(C(F)(F)F)cc4)cc3C2)n1` gave an IC50 [1] of 7 nM, an IC50 [2] of 4 nM and an IC50 [3] of 17 nM.

`Cc1cccc(C(=O)Nc2ccc3c(c2)CC(NS(=O)(=O)c2ccccc2)C3)c1-c1ccc(C(F)(F)F)cc1` (racemic) gave an IC50 [3] of 1250 nM.

With `Cc1cccc(C(=O)Nc2ccc3c(c2)C[C@@H](NCc2ccccn2)C3)c1-c1ccc(C(F)(F)F)cc1` the IC50 [4] was 2350 nM, the IC50 [1] was 120 nM and the IC50 [2] was 57 nM. For the same compound, the IC50 [3] was 100 nM.
